Measurements published in PubChem BioAssay (NCI).
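GI50 = concentration required for 50% inhibition of growth. TGI marks complete inhibition of growth.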

Legend:
Assay in all cases: NCI tumour cell line growth inhibition, 384-well format
ACHN renal = tested on: ACHN renal
BT-549 breast = tested on: BT-549 breast
CAKI-1 renal = tested on: CAKI-1 renal
CCRF-CEM leukemia = tested on: CCRF-CEM leukemia
COLO 205 colon = tested on: COLO 205 colon
EKVX NSCLC = tested on: EKVX NSCLC
HCC-2998 colon = tested on: HCC-2998 colon
HCT-15 colon = tested on: HCT-15 colon
HL-60(TB) leukemia = tested on: HL-60(TB) leukemia
HS 578T breast = tested on: HS 578T breast
IGROV1 ovarian = tested on: IGROV1 ovarian
KM12 colon = tested on: KM12 colon
M14 melanoma = tested on: M14 melanoma
MALME-3M melanoma = tested on: MALME-3M melanoma
MDA-MB-435 melanoma = tested on: MDA-MB-435 melanoma
MDA-MB-468 breast = tested on: MDA-MB-468 breast
MOLT-4 leukemia = tested on: MOLT-4 leukemia
NCI-H23 lung = tested on: NCI-H23 lung
NCI-H322M lung = tested on: NCI-H322M lung
NCI-H460 NSCLC = tested on: NCI-H460 NSCLC
NCI-H522 lung = tested on: NCI-H522 lung
NCI/ADR-RES ovarian = tested on: NCI/ADR-RES ovarian
OVCAR-3 ovarian = tested on: OVCAR-3 ovarian
OVCAR-4 ovarian = tested on: OVCAR-4 ovarian
RPMI-8226 leukemia = tested on: RPMI-8226 leukemia
RXF 393 renal = tested on: RXF 393 renal
SF-268 CNS = tested on: SF-268 CNS
SF-539 CNS = tested on: SF-539 CNS
SK-MEL-28 melanoma = tested on: SK-MEL-28 melanoma
SK-MEL-5 melanoma = tested on: SK-MEL-5 melanoma
SN12C renal = tested on: SN12C renal
SNB-19 CNS = tested on: SNB-19 CNS
SNB-75 CNS = tested on: SNB-75 CNS
SR leukemia = tested on: SR leukemia
T-47D breast = tested on: T-47D breast
UACC-257 melanoma = tested on: UACC-257 melanoma
UACC-62 melanoma = tested on: UACC-62 melanoma
UO-31 renal = tested on: UO-31 renal

SMILES: CC(=O)N[C@@H]1CCC[C@H](C(=O)Nc2cc(-c3cnn4c3CC(C)(C)C4)c(Cl)cn2)C1
- GI50 (ACHN renal): < 10 nM
- TGI (ACHN renal): > 100 µM
- GI50 (BT-549 breast): < 10 nM
- TGI (BT-549 breast): < 10 nM
- GI50 (CAKI-1 renal): < 10 nM
- TGI (CAKI-1 renal): > 100 µM
- GI50 (CCRF-CEM leukemia): < 10 nM
- TGI (CCRF-CEM leukemia): < 10 nM
- GI50 (COLO 205 colon): < 10 nM
- TGI (COLO 205 colon): < 10 nM
- GI50 (EKVX NSCLC): < 10 nM
- TGI (EKVX NSCLC): 39.6 nM
- GI50 (HCC-2998 colon): < 10 nM
- TGI (HCC-2998 colon): 13.9 nM
- GI50 (HCT-15 colon): < 10 nM
- TGI (HCT-15 colon): 21.8 µM
- GI50 (HL-60(TB) leukemia): < 10 nM
- TGI (HL-60(TB) leukemia): < 10 nM
- GI50 (HS 578T breast): < 10 nM
- TGI (HS 578T breast): < 10 nM
- GI50 (IGROV1 ovarian): < 10 nM
- TGI (IGROV1 ovarian): > 100 µM
- GI50 (KM12 colon): < 10 nM
- TGI (KM12 colon): < 10 nM
- GI50 (M14 melanoma): < 10 nM
- TGI (M14 melanoma): < 10 nM
- GI50 (MALME-3M melanoma): < 10 nM
- TGI (MALME-3M melanoma): 14.4 nM
- GI50 (MDA-MB-435 melanoma): < 10 nM
- TGI (MDA-MB-435 melanoma): 44.3 nM
- GI50 (MDA-MB-468 breast): < 10 nM
- TGI (MDA-MB-468 breast): < 10 nM
- GI50 (MOLT-4 leukemia): < 10 nM
- TGI (MOLT-4 leukemia): < 10 nM
- GI50 (NCI-H23 lung): < 10 nM
- TGI (NCI-H23 lung): 10.3 nM
- GI50 (NCI-H322M lung): < 10 nM
- TGI (NCI-H322M lung): < 10 nM
- GI50 (NCI-H460 NSCLC): < 10 nM
- TGI (NCI-H460 NSCLC): 313 nM
- GI50 (NCI-H522 lung): 14.8 nM
- TGI (NCI-H522 lung): 36 nM
- GI50 (NCI/ADR-RES ovarian): 152 nM
- TGI (NCI/ADR-RES ovarian): 620 nM
- GI50 (OVCAR-3 ovarian): < 10 nM
- TGI (OVCAR-3 ovarian): < 10 nM
- GI50 (OVCAR-4 ovarian): < 10 nM
- TGI (OVCAR-4 ovarian): 18.3 nM
- GI50 (RPMI-8226 leukemia): < 10 nM
- TGI (RPMI-8226 leukemia): < 10 nM
- GI50 (RXF 393 renal): < 10 nM
- TGI (RXF 393 renal): < 10 nM
- GI50 (SF-268 CNS): < 10 nM
- TGI (SF-268 CNS): < 10 nM
- GI50 (SF-539 CNS): < 10 nM
- TGI (SF-539 CNS): < 10 nM
- GI50 (SK-MEL-28 melanoma): < 10 nM
- TGI (SK-MEL-28 melanoma): 11.4 nM
- GI50 (SK-MEL-5 melanoma): < 10 nM
- TGI (SK-MEL-5 melanoma): < 10 nM
- GI50 (SN12C renal): < 10 nM
- TGI (SN12C renal): 14 nM
- GI50 (SNB-19 CNS): < 10 nM
- TGI (SNB-19 CNS): > 100 µM
- GI50 (SNB-75 CNS): < 10 nM
- TGI (SNB-75 CNS): 26.7 nM
- GI50 (SR leukemia): < 10 nM
- TGI (SR leukemia): < 10 nM
- GI50 (T-47D breast): < 10 nM
- TGI (T-47D breast): > 100 µM
- GI50 (UACC-257 melanoma): < 10 nM
- TGI (UACC-257 melanoma): 21.9 nM
- GI50 (UACC-62 melanoma): < 10 nM
- TGI (UACC-62 melanoma): < 10 nM
- GI50 (UO-31 renal): 24.5 nM
- TGI (UO-31 renal): > 100 µM
